In patent EP4417607A1, “HETEROCYCLIC COMPOUND AS SOS1 INHIBITOR AND USES THEREOF” (Nanjing Zaiming Pharmaceutical Co., Ltd., priority 2021, dated 2023):

Experiments:
[1] = Pharmacokinetics in mice after single intragastric or intravenous administration; assay type: in vivo; conditions: female, BALB/c nude, mouse, plasma
Experimental: Healthy adult female BALB/c nude mice were evenly divided into groups of 3 mice per group. 3 mice were administered intragastrically, and 3 mice were administered intravenously. The mice were purchased from Beijing Vital River Laboratory Animal Technology Co., Ltd., animal production license number: SCXK (Zhejiang) 2019-0001.
A certain amount of the compound of the present invention was weighed and dissolved in 5% DMSO + 20% PG + 5% anhydrous ethanol + 10% solutol + 60% water to prepare 5 mg/mL for intragastric administration. A certain amount of the compound of the present invention was weighed and dissolved in 1% DMSO + 4% PG + 1% anhydrous ethanol + 2% solutol + 92% water to prepare 0.5 mg/mL for intravenous injection.
Intragastric administration group: BALB/c nude mice were fasted overnight and then intragastrically administered the compound at a dose of 50 mg/kg and a volume of 10 mL/kg.
Intravenous administration group: BALB/c nude mice were fasted overnight and then intravenously administered the compound at a dose of 3 mg/kg and a volume of 6 mL/kg.
After intragastric administration or intravenous administration, 40 µL of blood was collected from orbits of the mice at 5 min, 15 min, 30 min, 1 h, 2 h, 4 h, 6 h, 8 h, and 24 h after administration, anticoagulated with 5 µL of EDTA-K2, centrifuged at 12000 rpm at 4 °C for 5 min to separate the plasma, and stored at -20 °C.
Determination of plasma concentrations in mice after intragastric administration or intravenous administration of different concentrations of the test compounds: the sample was melted at room temperature and vortexed for 1 min; 10 µL of the sample was quantitatively transferred to a 2-mL 96-well plate; 50 µL of an internal standard solution (a solution of tolbutamide in acetonitrile) and 50 µL of a precipitant (acetonitrile:methanol 7:3) were added, and the plate was shaken (1000 rpm * 3 min); the mixture was centrifuged (4000 rpm * 15 min); 80 µL of the supernatant was transferred to a 2-mL 96-well plate; 80 µL of a diluent (water) was added; the mixture was shaken evenly (1000 rpm * 3 min), and 5 µL of the sample was analyzed. LC/MS/MS conditions: The mobile phase A was 0.1% aqueous formic acid solution. The mobile phase B was 0.1% formic acid in acetonitrile. The column was Waters T3 1.8 µm (2.1 mm * 30 mm). The column temperature was 40 °C.

H358 cells = test: H358 cell proliferation inhibition (CellTiter-Glo luminescent cell viability assay); assay type: cell-based; conditions: 7 days
Procedure, shortened: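 H358 cells seeded at 3000 cells/well in RPMI1640/10% FBS, treated with compound for 7 days at 37 °C/5% CO2. Viability read by CellTiter-Glo 3D luminescence, normalised to cell-free (100%) and compound-free (0%) controls; IC50 fitted from 8 concentrations by four-parameter curve.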

[2] = test system: p-ERK pathway in H358 cells; test: p-ERK pathway inhibition in H358 cells (Advanced phospho-ERK (Thr202/Tyr204) cellular kit, HTRF); assay type: cell-based
Procedure, shortened: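 IC50 from an 8-point four-parameter fit of % inhibition of ERK Thr202/Tyr204 phosphorylation, measured by HTRF 665/620 ratio in lysates. H358 cells were seeded at 50000/well, starved overnight without serum, and exposed to compound 1 h at 37 °C; controls were cell-free (100%) and untreated (0%).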

[3] = po, single intragastric administration, 50 mg/kg
[4] = single intravenous administration, 3 mg/kg
[5] = Homo sapiens, NCI-H358, 1 h compound incubation

Molecule | IC50 (H358 cells; Homo sapiens, NCI-H358, 168 h) [nM] | IC50 [2, 5] [nM] | also measured
COc1c(=O)n(C2(CF)CC2)cc2c(N[C@H](C)c3cccc(C(F)F)c3F)nc(C)nc12 [Example 1, (R)-4-((1-(3-(difluoromethyl)-2-fluorophenyl)ethyl)amino)-6-(1-(fluoromethyl)cyclopropyl)-8-methoxy-2-methylpyrido[4,3-d]pyrimidine-7(6H)-one] | 19.6 | 20.7 | AUC(0-t) [1, 3]: 17800 ng·h/mL; Cmax [1, 3]: 9430 ng/mL; Tmax [1, 3]: 24 min; half-life [1, 3]: 60 min; AUC(0-t) [1, 4]: 619 ng·h/mL; C0 [1, 4]: 2960 ng/mL; half-life [1, 4]: 30 min; Vd ([1]; single intravenous administration, 3 mg/kg, read-out: Vss): 3.8 L/kg
Cc1nc(N[C@H](C)c2cccc(C(F)F)c2F)c2cn(C3(CF)CC3)c(=O)c(N3CCN(CC4COC4)CC3)c2n1 [Example 133, (R)-4-((1-(3-(difluoromethyl)-2-fluorophenyl)ethyl)amino)-6-(1-(fluoromethyl)cyclopropyl)-2-methyl-8-(4-(oxetan-3-ylmethyl)piperazin-1-yl)pyrido[4,3-d]pyrimidine-7(6H)-one] | 34.9 | 70 | –
Cc1nc(N[C@H](C)c2cccc(C(F)F)c2F)c2cn(C3(CF)CC3)c(=O)c(N3CCOC[C@@H]3CO)c2n1 [Example 135, 4-(((R)-1-(3-(difluoromethyl)-2-fluorophenyl)ethyl)amino)-6-(1-(fluoromethyl)cyclopropyl)-8-((S)-3-(hydroxymethyl)morpholinyl)-2-methylpyrido[4,3-d]pyrimidine-7(6H)-one] | 65.2 | 59 | –
Cc1nc(N[C@H](C)c2cccc(C(F)F)c2F)c2cn(C3(CF)CC3)c(=O)c(N3CCOC[C@@H]3CF)c2n1 [Example 136, 4-(((R)-1-(3-(difluoromethyl)-2-fluorophenyl)ethyl)amino)-6-(1-(fluoromethyl)cyclopropyl)-8-((R)-3-(fluoromethyl)morpholinyl)-2-methylpyrido[4,3-d]pyrimidine-7(6H)-one] | 42.3 | 80.2 | –
Cc1nc(N[C@H](C)c2cccc(C(F)F)c2F)c2cn(N3CCOCC3)c(=O)c(-c3cnn4c3COCC4)c2n1 [Example 138, (R)-4-((1-(3-(difluoromethyl)-2-fluorophenyl)ethyl)amino)-8-(6,7-dihydro-4H-pyrazolo[5,1-c][1,4]oxazin-3-yl)-2-methyl-6-morpholinylpyrido[4,3-d]pyrimidine-7(6H)-one] | 115 | 63.1 | –
Cc1nc(N[C@H](C)c2cccc(C(F)F)c2F)c2cn(C3(CF)CC3)c(=O)c(C3(O)CCOC3)c2n1 (stereo partly drawn) [Example 139, 4-(((R)-1-(3-(difluoromethyl)-2-fluorophenyl)ethyl)amino)-6-(1-(fluoromethyl)cyclopropyl)-8-(3-hydroxytetrahydrofuran-3-yl)-2-methylpyrido[4,3-d]pyrimidine-7(6H)-one] | 86.6 | 81.2 | –
Cc1nc(N[C@H](C)c2cccc(C(F)F)c2F)c2cn(C3(CF)CC3)c(=O)c(N3CCN(C4CC4)CC3)c2n1 [Example 142, (R)-8-(4-cyclopropylpiperazin-1-yl)-4-((1-(3-(difluoromethyl)-2-fluorophenyl)ethyl)amino)-6-(1-(fluoromethyl)cyclopropyl)-2-methylpyrido[4,3-d]pyrimidine-7(6H)-one] | 24.1 | 43.7 | –
Cc1nc(N[C@H](C)c2cccc(C(F)F)c2F)c2cn(C3(CF)CC3)c(=O)c(N3CCN(C4(C)COC4)CC3)c2n1 [Example 143] | 15.8 | 34.8 | –
Cc1nc(N[C@H](C)c2cccc(C(F)F)c2F)c2cn(C3(CF)CC3)c(=O)c(C3(O)CCN(C4COC4)CC3)c2n1 [Example 145, (R)-4-((1-(3-(difluoromethyl)-2-fluorophenyl)ethyl)amino)-6-(1-(fluoromethyl)cyclopropyl)-8-(4-hydroxy-1-(oxetan-3-yl)piperidin-4-yl)-2-methylpyrido[4,3-d]pyrimidine-7(6H)-one] | 64.6 | 138 | –
COC1(c2c(=O)n(C3(CF)CC3)cc3c(N[C@H](C)c4cccc(C(F)F)c4F)nc(C)nc23)COC1 [Example 150, (R)-4-((1-(3-(difluoromethyl)-2-fluorophenyl)ethyl)amino)-6-(1-(fluoromethyl)cyclopropyl)-8-(3-methoxyoxetan-3-yl)-2-methylpyrido[4,3-d]pyrimidine-7(6H)-one] | 68.7 | 42.8 | –
Cc1nc(N[C@H](C)c2cccc(C(F)F)c2F)c2cn(C3(CF)CC3)c(=O)c(N3CCC4(CC3)COC4)c2n1 [Example 151, (R)-4-((1-(3-(difluoromethyl)-2-fluorophenyl)ethyl)amino)-6-(1-(fluoromethyl)cyclopropyl)-2-methyl-8-(2-oxa-7-azaspiro[3.5]nonan-7-yl)pyrido[4,3-d]pyrimidine-7(6H)-one] | 73.1 | 41.7 | –
Cc1nc(N[C@H](C)c2cccc(C(F)F)c2F)c2cn(C3(CF)CC3)c(=O)c(N3CC4CC(C3)N4C3COC3)c2n1 [Example 152, 4-(((R)-1-(3-(difluoromethyl)-2-fluorophenyl)ethyl)amino)-6-(1-(fluoromethyl)cyclopropyl)-2-methyl-8-(6-(oxetan-3-yl)-3,6-diazabicyclo[3.1.1]heptan-3-yl)pyrido[4,3-d]pyrimidine-7(6H)-one] | 13.6 | 76.3 | –
COC1(C)CCN(c2c(=O)n(C3(CF)CC3)cc3c(N[C@H](C)c4cccc(C(F)F)c4F)nc(C)nc23)CC1 [Example 155] | 124 | 59.8 | –
Cc1nc(N[C@H](C)c2cccc(C(F)F)c2F)c2cn(C3(CF)CC3)c(=O)c(N3CCC(N(C)C)CC3)c2n1 [Example 158] | 12.5 | 145 | –
Cc1nc(N[C@H](C)c2cccc(C(F)F)c2F)c2cn(C3(CF)CC3)c(=O)c(N3CCC(N4CCCC4)CC3)c2n1 [Example 159] | 51.5 | 138 | –
COc1ccc(-c2c(=O)n(N3CCOCC3)cc3c(N[C@H](C)c4cccc(C#N)c4C)nc(C)nc23)cn1 [Example 162] | 96.5 | 77.5 | –
Cc1nc(N[C@H](C)c2cccc(C#N)c2C)c2cn(C3(CF)CC3)c(=O)c(N3CCOCC3(C)C)c2n1 [Example 171, (R)-3-(1-((8-(3,3-dimethylmorpholinyl)-6-(1-(fluoromethyl)cyclopropyl)-2-methyl-7-oxo-6,7-dihydropyrido[4,3-d]pyrimidin-4-yl)amino)ethyl)-2-methylbenzonitrile] | 52.7 | 75.6 | –
Cc1nc(N[C@H](C)c2cccc(C(F)F)c2F)c2cn(C3(CF)CC3)c(=O)c(N3CC4CC(C3)O4)c2n1 [Example 174] | 36.2 | 20.4 | –
[2H]C1([2H])COC[C@H](C)N1c1c(=O)n(C2(CF)CC2)cc2c(N[C@H](C)c3cccc(C(F)F)c3F)nc(C)nc12 [Example 175] | 36.2 | 31 | –
Cc1nc(N[C@H](C)c2cccc(C(F)F)c2F)c2cn(C3(CF)CC3)c(=O)c(-c3cnn4c3COCC4)c2n1 [Example 176] | 132 | 126 | –
(R)-4-((1-(3-(difluoromethyl)-2-fluorophenyl)ethyl)amino)-6-(1-(fluoromethyl)cyclopropyl)-8-(2-hydroxyprop-2-yl)-2-methylpyrido[4,3-d]pyrimidine-7(6H)-one [Example 144] | – | – | IC50 (H358 cells): 105 nM; IC50 ([2]; 1 h compound incubation): 40 nM
